Results reported in US9062061B2, “Compound having PARP inhibitory activity” (SANTEN PHARMACEUTICAL CO., LTD., priority 2011, dated 2015).
Where a name gives a salt, the structure may show the parent alone.

Columns and labels:
[1] = tested on: rat N-methyl-N-nitrosourea (MNU)-induced retinal degeneration model; assay: Retinal degeneration inhibitory activity in rat MNU-induced model (retinal volume by OCT); assay type: in vivo; settings: po, 168 h, seventh day, Brown Norway male rats, read-out: Retinal volume reduction inhibition rate (%); for inhibition in vivo at 10 mg/kg: test compound 10 mg/kg orally once 30 minutes before MNU
Experimental: For examining influence of the present compound on the retinal degeneration, retinal degeneration inhibitory activity of test compound was evaluated, using a rat N-methyl-N-nitrosourea (hereinafter, “MNU”)-induced retinal degeneration model. The rat MNU-induced retinal degeneration model is a model animal in which cell death of retinal photoreceptor cell is induced by administration of MNU which is a DNA alkylation agent, and is generally used as a model animal for chorioretinal degenerative diseases such as retinitis pigmentosa (Exp. Eye. Res., 84(2), 285-292 (2007)).
By the previous day of MNU administration, retinal volumes of 8-week-old Brown Norway male rats were measured by using optical coherence tomography (OCT) (product of Carl Zeiss, model number: STRATUS OCT Model 3000). An MNU administration liquid was intraperitoneally administered to the rats at a dose of 50 to 60 mg/kg, and on the seventh day after administration, retinal volumes were measured by using OCT. The normal control group underwent no treatment, and retinal volumes were measured on the same day as the MNU administration group. The number of examples in each group was 4 rats (8 eyes).
(Administration Method) • Test compound-administered group: A solution of each test compound suspended in 1% (w/v) methylcellulose aqueous solution was orally administered once 30 minutes before MNU administration at a dose of 1 to 30 mg/kg. • Normal control group and vehicle-administered group: 1% (w/v) methylcellulose aqueous solution was orally administered once 30 minutes before MNU administration.
According to the following Formula 2, retinal volume reduction inhibition rate (%) was calculated. Retinal volume reduction inhibition rate(%)=(RVX-pre/RVX-post−RVB-pre/RVB-post)/(RVA-pre/RVA-post−RVB-pre/RVB-post)×100 [Formula 2]
RVA-pre: retinal volume before MNU administration of normal control group (mm^3)
RVA-post: retinal volume on the seventh day after MNU administration of normal control group (mm^3)
RVB-pre: retinal volume before MNU administration of vehicle-administered group (mm^3)
RVB-post: retinal volume on the seventh day after MNU administration of vehicle-administered group (mm^3)
RVX-pre: retinal volume before MNU administration of test compound-administered group (mm^3)
RVX-post: retinal volume on the seventh day after MNU administration of test compound-administered group (mm^3)

human recombinant PARP1 = biological target: T1, human recombinant PARP1 (Homo sapiens, UniProt P09874); assay: PARP inhibitory activity measurement test (Universal Colorimetric PARP Assay kit, Trevigen); assay type: biochemical; settings: compound concentration: 10 μM, read-out: PARP1 inhibition rate (%)
T1 construct: purchased Trevigen 4677-096-K
Experimental: For evaluating PARP inhibitory activity of the present compound, inhibitory activity of each test compound against human recombinant PARP 1 was measured using Universal Colorimetric PARP Assay kit with Histone-Coated Strip Wells (Cat No.: 4677-096-K) available from Trevigen. The test was conducted according to the procedure in the instruction attached to this kit. The concrete operation will be described below.
After dissolving the test compound in dimethyl sulfoxide, the solution was diluted with a PARP buffer attached to the kit to prepare a 50 μM test compound solution.
In each well of a histone-coated 96-well plate, 10 μL of the test compound solution (50 μM), 15 μL of human recombinant PARP1 (33.3 Unit/mL) and 25 μL of PARP cocktail (containing activated DNA and biotinated NAD) were added, and incubated at room temperature for 1 hour (final reaction amount: 50 μL). Each well was washed twice with 200 μL of 0.1% Triton-X-containing Dulbecco's phosphate buffer, and further washed twice with 200 μL of Dulbecco's phosphate buffer, and then 50 μL of Strep-HRP was added, followed by incubation at room temperature for 1 hour. Each well was washed twice with 200 μL of 0.1% Triton-X-containing Dulbecco's phosphate buffer, and further washed twice with 200 μL of Dulbecco's phosphate buffer, and then 50 μL of TACS-Sapphire coloriometric substrate was added, followed by incubation at room temperature for 15 minutes. After stopping the reaction by adding 50 μL of 0.2 M HCl, absorbance at 450 nm (Abs 450) was measured by a microplate reader. The number of examples in each group was 1 to 2.
Using a well into which dimethyl sulfoxide and a PARP buffer were added in place of the test compound solution and human recombinant PARP1, the above operation was conducted as a negative control.
Using a well into which a PARP buffer containing dimethyl sulfoxide was added in place of the test compound solution, the above operation was conducted as a positive control.
PARP1 inhibition rate (%) was calculated according to the following Formula 1. PARP1 inhibition rate(%)=(AbsB−AbsX)/(AbsB−AbsA)×100 [Formula 1]
AbsA: absorbance of negative control (Abs 450)
AbsB: absorbance of positive control (Abs 450)
AbsX: absorbance of test compound-treated group (Abs 450)

T1 sequence (P09874 whole entry): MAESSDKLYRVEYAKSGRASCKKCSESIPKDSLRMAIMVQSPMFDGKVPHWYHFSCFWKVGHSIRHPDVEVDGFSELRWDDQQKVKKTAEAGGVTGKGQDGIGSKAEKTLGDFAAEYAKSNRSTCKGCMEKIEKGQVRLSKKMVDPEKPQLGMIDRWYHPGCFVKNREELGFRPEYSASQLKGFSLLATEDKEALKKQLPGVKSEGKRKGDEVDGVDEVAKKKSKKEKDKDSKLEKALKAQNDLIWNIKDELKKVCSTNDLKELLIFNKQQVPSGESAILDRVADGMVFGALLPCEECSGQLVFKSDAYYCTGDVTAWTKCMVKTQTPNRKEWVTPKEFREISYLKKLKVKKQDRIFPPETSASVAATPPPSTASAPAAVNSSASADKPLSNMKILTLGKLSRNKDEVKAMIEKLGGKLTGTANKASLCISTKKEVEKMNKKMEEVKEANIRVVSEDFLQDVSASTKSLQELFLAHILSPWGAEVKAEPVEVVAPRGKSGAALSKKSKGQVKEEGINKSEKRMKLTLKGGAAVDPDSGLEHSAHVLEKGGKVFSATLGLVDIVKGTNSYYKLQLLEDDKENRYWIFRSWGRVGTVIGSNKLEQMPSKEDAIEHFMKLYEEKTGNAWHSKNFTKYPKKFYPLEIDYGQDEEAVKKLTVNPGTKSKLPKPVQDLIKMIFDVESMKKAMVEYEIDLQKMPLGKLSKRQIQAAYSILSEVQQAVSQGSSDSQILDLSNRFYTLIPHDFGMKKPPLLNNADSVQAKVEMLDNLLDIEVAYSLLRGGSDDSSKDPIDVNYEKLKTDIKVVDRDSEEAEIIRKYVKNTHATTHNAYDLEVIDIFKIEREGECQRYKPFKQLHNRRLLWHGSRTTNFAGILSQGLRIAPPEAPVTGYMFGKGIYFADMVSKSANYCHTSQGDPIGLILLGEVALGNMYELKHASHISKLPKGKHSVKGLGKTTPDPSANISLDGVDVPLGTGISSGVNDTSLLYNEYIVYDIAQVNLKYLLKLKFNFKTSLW

Row | Structure (SMILES) | inhibition in vivo at 10 mg/kg ([1]; MNU 50 mg/kg i.p.) | inhibition at 10 µM (human recombinant PARP1) | inhibition in vivo at 30 mg/kg ([1]; MNU 60 mg/kg i.p., test compound 30 mg/kg orally once 30 minutes before MNU) | inhibition in vivo at 1 mg/kg ([1]; MNU 50 mg/kg i.p., test compound 1 mg/kg orally once 30 minutes before MNU)
1 | O=c1[nH]c2cc(CN3CCC(c4ccccc4)CC3)cn2c2ccccc12 [Compound 2-5, 2-(4-Phenylpiperidin-1-ylmethyl)pyrrolo[1,2-a]quinazolin-5(4H)-one] | 16% | 96% | – | –
2 | O=c1[nH]c2cc(CN3CC=C(c4ccc(Cl)cc4)CC3)cn2c2ccccc12 [Compound 2-7, 2-[4-(4-Chlorophenyl)-1,2,3,6-tetrahydropyridine-1-ylmethyl]pyrrolo[1,2-a]quinazolin-5(4H)-one] | 69% | 99% | – | –
3 | O=c1[nH]c2cc(CN3CC=C(c4ccc(F)cc4)CC3)cn2c2ccccc12 [Compound 2-8, 2-[4-(4-Fluorophenyl)-1,2,3,6-tetrahydropyridin-1-ylmethyl]pyrrolo[1,2-a]quinazolin-5(4H)-one] | 39% | 100% | – | –
4 | O=c1[nH]c2cc(CN3CCN(c4ccccc4F)CC3)cn2c2ccccc12 [Compound 2-9, 2-[4-(2-Fluorophenyl)piperazin-1-ylmethyl]pyrrolo[1,2-a]quinazolin-5(4H)-one] | 25% | 99% | – | –
5 | O=c1[nH]c2cc(CN3CCN(c4ccc(Cl)cc4)CC3)cn2c2ccccc12 [Compound 2-12, 2-[4-(4-Chlorophenyl)piperazin-1-ylmethyl]pyrrolo[1,2-a]quinazolin-5(4H)-one] | – | 100% | 47% | –
6 | O=c1[nH]c2cc(CN3CCC(c4ccc(F)cc4)CC3)cn2c2ccccc12 [Compound 2-14, 2-[4-(4-Fluorophenyl)piperidin-1-ylmethyl]pyrrolo[1,2-a]quinazolin-5(4H)-one] | 33% | 100% | – | –
7 | COc1ccc(N2CCN(Cc3cc4[nH]c(=O)c5ccccc5n4c3)CC2)cc1 [Compound 2-16, 2-[4-(4-Methoxyphenyl)piperazin-1-ylmethyl]pyrrolo[1,2-a]quinazolin-5(4H)-one] | 29% | 100% | – | –
8 | O=c1[nH]c2cc(CN3CCN(c4ccccn4)CC3)cn2c2ccccc12 [Compound 2-17, 2-[4-(Pyridin-2-yl)piperazin-1-ylmethyl]pyrrolo[1,2-a]quinazolin-5(4H)-one] | 48% | 100% | – | –
9 | O=c1[nH]c2cc(CN3CCN(c4ccc(Cl)cn4)CC3)cn2c2ccccc12 [Compound 2-30, 2-[4-(5-Chloropyridin-2-yl)piperazin-1-ylmethyl]pyrrolo[1,2-a]quinazolin-5(4H)-one] | 72% | 100% | – | –
10 | O=c1[nH]c2cc(CN3CCN(c4ccc(F)cc4F)CC3)cn2c2ccccc12 [Compound 2-35, 2-[4-(2,4-Difluorophenyl)piperazin-1-ylmethyl]pyrrolo[1,2-a]quinazolin-5(4H)-one] | 61% | 100% | – | –
11 | O=c1[nH]c2cc(CN3CCN(c4nccc5occc45)CC3)cn2c2ccccc12 [Compound 2-36, 2-[4-(Furo[3,2-c]pyridin-4-yl)piperazin-1-ylmethyl]pyrrolo[1,2-a]quinazolin-5(4H)-one] | – | 82% | – | –
12 | CC(C)Oc1ccc(N2CCN(Cc3cc4[nH]c(=O)c5ccccc5n4c3)CC2)cc1 [Compound 2-38, 2-[4-(4-Isopropoxyphenyl)piperazin-1-ylmethyl]pyrrolo[1,2-a]quinazolin-5(4H)-one] | – | 98% | – | –
13 | COc1cc(F)ccc1N1CCN(Cc2cc3[nH]c(=O)c4ccccc4n3c2)CC1 [Compound 2-39, 2-[4-(4-Fluoro-2-methoxyphenyl)piperazin-1-ylmethyl]pyrrolo[1,2-a]quinazolin-5(4H)-one] | 84% | 100% | – | –
14 | O=c1[nH]c2cc(CN3CCN(c4ccc5c(c4)OCO5)CC3)cn2c2ccccc12 [Compound 2-40, 2-[4-(1,3-Benzodioxol-5-yl)piperazin-1-ylmethyl]pyrrolo[1,2-a]quinazolin-5(4H)-one] | 88% | 100% | – | –
15 | O=c1[nH]c2cc(CN3CCN(c4ccc(F)cc4)CC3)cn2c2ccsc12 [Compound 2-41, 7-[4-(4-Fluorophenyl)piperazin-1-ylmethyl]pyrrolo[1,2-a]thieno[2,3-e]pyrimidin-4(5H)-one] | – | 100% | – | –
16 | O=c1[nH]c2cc(CN3CCN(c4ccc(Cl)cc4)CC3)cn2c2ccsc12 [Compound 2-42, 7-[4-(4-Chlorophenyl)piperazin-1-ylmethyl]pyrrolo[1,2-a]thieno[2,3-e]pyrimidin-4(5H)-one] | – | 100% | – | –
17 | O=c1[nH]c2cc(CN3CCCC3)cn2c2ccsc12 [Compound 2-43, 7-(Pyrrolidin-1-ylmethyl)pyrrolo[1,2-a]thieno[2,3-e]pyrimidin-4(5H)-one] | – | 91% | – | –
18 | O=c1[nH]c2cc(CN3CCN(c4ccccn4)CC3)cn2c2ccc(F)cc12 [Compound 2-44, 7-Fluoro-2-[4-(pyridin-2-yl)piperazin-1-ylmethyl]pyrrolo[1,2-a]quinazolin-5(4H)-one] | 81% | 98% | – | –
19 | O=c1[nH]c2cc(CN3CCN(c4ccc(F)cc4)CC3)cn2c2ccc(F)cc12 [Compound 2-45, 7-Fluoro-2-[4-(4-fluorophenyl)piperazin-1-ylmethyl]pyrrolo[1,2-a]quinazolin-5(4H)-one] | – | 100% | – | 81%
20 | CN(C)CCOc1cc(F)ccc1N1CCN(Cc2cc3[nH]c(=O)c4ccccc4n3c2)CC1 [Compound 2-46, 2-[4-[2-(2-Dimethylaminoethoxy)-4-fluorophenyl]piperazin-1-ylmethyl]pyrrolo[1,2-a]quinazolin-5(4H)-one] | – | 85% | – | –
21 | O=c1[nH]c2cc(CN3CCC(N4CCOCC4)CC3)cn2c2ccccc12 [Compound 2-47, 2-[4-(Morpholin-4-yl)piperidin-1-ylmethyl]pyrrolo[1,2-a]quinazolin-5(4H)-one] | – | 99% | – | –
22 | O=c1[nH]c2cc(CN3CCN(c4ccc(O)cc4)CC3)cn2c2ccccc12 [Compound 3-1, 2-[4-(4-Hydroxyphenyl)piperazin-1-ylmethyl]pyrrolo[1,2-a]quinazolin-5(4H)-one] | – | 100% | – | –
23 | O=C(c1cc2[nH]c(=O)c3ccccc3n2c1)N1CCCNCC1 [Compound 5-1, 2-(Homopiperazine-1-carbonyl)pyrrolo[1,2-a]quinazolin-5(4H)-one hydrochloride] | – | 99% | – | –
24 | O=C(c1cc2[nH]c(=O)c3ccccc3n2c1)N1CCNCC1 [Compound 5-2, 2-(piperazine-1-carbonyl)pyrrolo[1,2-a]quinazolin-5(4H)-one] | – | 85% | – | –
25 | O=C(c1cc2[nH]c(=O)c3ccccc3n2c1)N1CCCN(C(=O)C2CC2)CC1 [Compound 6-1, 2-[4-Cyclopropylcarbonylhomopiperazine-1-carbonyl]pyrrolo[1,2-a]quinazolin-5(4H)-one] | – | 90% | – | –
